Data: patent publication US5512564A, “Tricyclic thiazole and oxazole derivatives and pharmaceutical agents containing them” (priority 1991, dated 1996)

Target: T1, purified RT from HIV-1 (Human immunodeficiency virus type 1 group M subtype B, UniProt P04585)
T1 construct: purified RT from HIV-1; made in house; host or cells: E. coli
Assay: Inhibition of Reverse Transcriptase (3H-thymidine-5'-triphosphate incorporation, 18mer oligonucleotide primer)
Type: biochemical
Settings: concentration causing 50% inhibition of the RT activity; HIV-1 RT expressed in E. coli
Experimental: The screening test system comprises the purified RT from HIV-1 which was expressed by genetic engineering methods in E. coli as well as the components of the initiation complex and site complementary 18mer oligonucleotide as the primer. The ^3 H!-thymidine-5'-triphosphate incorporation was measured by counting in a β counter. The IC50 value is given in the following table for the investigated compounds. This value corresponds to that concentration of the test substance which causes a 50% inhibition of the RT activity.

SMILES | IC50
O=C1c2cccnc2C2(c3ccccc3)SCCN12 (stereo not drawn) [Example 2, 3a-Phenyl-2,3a-Dihydro-1H-3-Thia-4,8a-Diaza-Cyclopenta a!Inden-8-One] | 3.3 µM
Cc1cc(C)cc(C23SCCN2C(=O)c2nccnc23)c1 (stereo not drawn) [Example 5, 3a-(3,5-Dimethyl-Phenyl)-2,3a-Dihydro-1H-3-Thia-4,7,8a-Triaza-Cyclopenta a! Inden-8-One] | 40 µM
O=C1c2ccncc2C2(c3ccccc3)SCCN12 (stereo not drawn) [Example 7, 3a-Phenyl-2,3a-Dihydro-1H-3-Thia-5,8a-Diaza-Cyclopenta a!Inden-8-One] | 17 µM
Cc1ccnc(C23SCCN2C(=O)c2cccnc23)c1 (stereo not drawn) [Example 8, 3a-(4-Methyl-Pyridin-2-Yl)-2,3a-Dihydro-1H-3-Thia-4,8a-Diaza-Cyclopenta a!I nden-8-One] | 4.6 µM
O=C1c2cccnc2C2(c3ccccn3)SCCN12 (stereo not drawn) [Example 9, 3a-Pyridin-2-Yl-2,3a-Dihydro-1H-3-Thia-4,8a-Diaza-Cyclopenta a!Inden-8-One] | 23 µM
Cc1cccc(C23SCCN2C(=O)c2cccnc23)n1 (stereo not drawn) [Example 10, 3a-(6-Methyl-Pyridin-2-Yl)-2,3a-Dihydro-1H-3-Thia-4,8a-Diaza-Cyclopenta a!I nden-8-One] | 6.6 µM
Cc1cc(C)nc(C23SCCN2C(=O)c2cccnc23)c1 (stereo not drawn) [Example 11, 3a-(4,6-Dimethyl-Pyridin-2-Yl)2,3a-Dihydro-1H-3-Thia-4,8a-Diaza-Cyclopenta a!Inden-8-One] | 3.9 µM
Cc1cccc(C23SCCN2C(=O)c2cccnc23)c1 (stereo not drawn) [Example 13, 3a-m-Tolyl-2,3a-Dihydro-1H-3-Thia-4,8a-Diaza-Cyclopenta a!Inden-8-One] | 4 µM

Tested on: not given
Assay: not given
Settings: treatment of AIDS; Hirsch, M. S. (1988); cited from earlier work

SMILES | therapeutic range (in words)
Cc1cn([C@H]2C[C@H](N=[N+]=[N-])[C@@H](CO)O2)c(=O)[nH]c1=O [AZT, 3'-azido-3'-deoxythymidine] | very narrow therapeutic range
